According to patent US5409933A, “Quinoline derivatives and processes for preparing the same” (priority 1993, dated 1995):
Structures can show the parent of a compound that is named as a salt. Where two headings read alike, the source gives them in different places.

How the values were obtained:
Assay in all cases: In Vitro Anti-Bacterial Activity Test (MIC, agar dilution)
Type in all cases: cell-based
[1] = system: Klebsiella oxytoca 1082E; details: Klebsiella oxytoca 1082E; Muller-Hinton agar, 37° C., 18 hours; read-out: MIC
Procedure, shortened: (§1)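 Compounds were diluted into Muller-Hinton agar plates, which were inoculated with 10^7 C.F.U./ml of each strain. Plates were kept at 37° C. for 18 hours before growth was read.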

[2] = system: Staphylococcus aureus 503; details: Staphylococcus aureus 503; Muller-Hinton agar, 37° C., 18 hours; read-out: MIC
Procedure, shortened: as §1

[3] = system: Escherichia coli 078
Procedure, shortened: as §1

[4] = system: Escherichia coli 1507E; details: Escherichia coli, 1507E, 18 h, Muller-Hinton agar, 37° C.
Procedure, shortened: as §1

[5] = system: Escherichia coli TEM; details: Escherichia coli, 18 h, Muller-Hinton agar, 37° C.
Procedure, shortened: (§2)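 Agar-incorporation MIC: Muller-Hinton medium, 10^7 C.F.U./ml inoculum, 18 h incubation at 37° C., growth checked by eye; ciprofloxacin reference.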

[6] = system: Pseudomonas aeruginosa 1592E; details: Muller-Hinton agar, 37° C., 18 hours, read-out: MIC
Procedure, shortened: as §1

[7] = system: Pseudomonas aeruginosa 1771M; details: Pseudomonas aeruginosa, 1771M, 18 h, Muller-Hinton agar, 37° C.
Procedure, shortened: as §1

[8] = system: Escherichia coli DC0; details: Muller-Hinton agar, 37° C., 18 hours, read-out: MIC
Procedure, shortened: as §1

[9] = system: Escherichia coli DC2; details: Escherichia coli, DC2, 18 h
Procedure, shortened: as §1

[10] = system: Staphylococcus aureus 285
Procedure, shortened: as §1

[11] = system: Pseudomonas aeruginosa 1771; details: Pseudomonas aeruginosa 1771; Muller-Hinton agar, 37° C., 18 hours; read-out: MIC
Procedure, shortened: as §1

[12] = system: Enterobacter cloacae P99; details: Enterobacter cloacae, P99, 18 h
Procedure, shortened: as §2

[13] = system: Streptococcus pyogenes 308A; details: Muller-Hinton agar, 37° C., 18 hours, read-out: MIC
Procedure, shortened: as §1

[14] = system: Staphylococcus aureus SG511; details: Staphylococcus aureus SG511; Muller-Hinton agar, 37° C., 18 hours; read-out: MIC
Procedure, shortened: as §1

[15] = system: Enterobacter cloacae 1321E; details: Enterobacter cloacae 1321E; Muller-Hinton agar, 37° C., 18 hours; read-out: MIC
Procedure, shortened: as §1

[16] = system: Klebsiella aerogenes 1522E; details: Klebsiella aerogenes, 1522E, 18 h, Klebsiella aerogenes 1522E; Muller-Hinton agar, 37° C., 18 hours; read-out: MIC
Procedure, shortened: as §1

[17] = system: Pseudomonas aeruginosa 9027; details: Muller-Hinton agar, 37° C., 18 hours, read-out: MIC
Procedure, shortened: as §1

[18] = system: Salmonella typhimurium; details: Salmonella enterica; Salmonella typhimurium; Muller-Hinton agar, 37° C., 18 hours; read-out: MIC
Procedure, shortened: as §1

[19] = system: Streptococcus faecium MD8b; details: Enterococcus faecium, Muller-Hinton agar, 37° C., 18 hours, read-out: MIC
Procedure, shortened: as §1

[20] = system: Streptococcus pyogenes 77A
Procedure, shortened: as §1

[21] = Streptococcus pyogenes, 77A, 18 h
[22] = Staphylococcus aureus, 285, 18 h, Staphylococcus aureus 285, Muller-Hinton agar, 37° C., 18 hours, read-out: MIC
[23] = Streptococcus pyogenes 77A, Muller-Hinton agar, 37° C., 18 hours, read-out: MIC
[24] = Escherichia coli 078, Muller-Hinton agar, 37° C., 18 hours, read-out: MIC

Row | SMILES | MIC [1] | MIC [2] | MIC ([3]; Escherichia coli, 078, 18 h) | MIC [4] | MIC [5] | MIC [6] | MIC [7] | MIC [8] | MIC [9] | MIC [11] | MIC [12] | MIC [13] | MIC [14] | MIC [15] | MIC [16] | MIC [17] | MIC [18] | MIC [19] | MIC [20, 21] | MIC [10, 22] | other results
1 | CS(=O)(=O)CC(=O)c1cn(C2CC2)c2c(Cl)c(N3CC4=C(CNC4)C3)c(F)cc2c1=O [Example 47, 1-cyclopropyl-6-fluoro-8-chloro-7-(3,7-diazabicyclo[3.3.0]oct-1,5-en-3-yl)-3-(2-methanesulfonylacetyl)-1,4-dihydro-4-oxoquinoline hydrochloride] | 0.098 µg/mL | 0.391 µg/mL | 0.195 µg/mL | 0.391 µg/mL | 0.195 µg/mL | 0.781 µg/mL | 0.195 µg/mL | 0.781 µg/mL | 0.391 µg/mL | 0.781 µg/mL | 0.049 µg/mL | 1.56 µg/mL | 0.391 µg/mL | 0.049 µg/mL | 0.049 µg/mL | 1.56 µg/mL | 0.098 µg/mL | 0.781 µg/mL | 0.781 µg/mL |  | MIC ([10]; Staphylococcus aureus, 285, 18 h): 0.195 µg/mL
2 | CC1CN(c2c(F)cc3c(=O)c(C(=O)C[N+](=O)[O-])cn(C4CC4)c3c2F)CCN1 (centres unmarked) [Example 7, 1-cyclopropyl-6,8-difluoro-7-(3-methylpiperazin-1-yl)-3-(2-nitroacetyl)-1,4-dihydro-4-oxoquinoline hydrochloride] | < 0.002 µg/mL | 0.391 µg/mL | 0.049 µg/mL | 0.025 µg/mL | 0.195 µg/mL | 0.781 µg/mL | 0.391 µg/mL | 0.391 µg/mL | 0.391 µg/mL | 1.56 µg/mL | 0.391 µg/mL | 1.56 µg/mL | 0.391 µg/mL | 0.013 µg/mL | 0.391 µg/mL | 0.781 µg/mL | 0.098 µg/mL | 0.781 µg/mL | 0.781 µg/mL | 0.391 µg/mL | 
3 | Cc1c(F)c(N2CCNC(C)C2)cc2c1c(=O)c(C(=O)C[N+](=O)[O-])cn2C1CC1 (centres unmarked) [Example 51, 1-cyclopropyl-5-methyl-6-fluoro-7-(3-methylpiperazin-1-yl)-3-(2-nitroacetyl)-1,4-dihydro-4-oxoquinoline hydrochloride] | 0.013 µg/mL | 0.098 µg/mL | 0.025 µg/mL | 0.049 µg/mL | 0.049 µg/mL | 0.391 µg/mL | 0.195 µg/mL | 0.781 µg/mL | 0.195 µg/mL | 0.781 µg/mL | 0.025 µg/mL | 0.781 µg/mL | 0.195 µg/mL | 0.025 µg/mL | 0.195 µg/mL | 0.781 µg/mL | 0.025 µg/mL | 0.391 µg/mL |  | 0.098 µg/mL | MIC [20, 23]: 0.391 µg/mL
4 | CCOC(=O)CC(=O)c1cn(C2CC2)c2c(Cl)c(N3CC[C@@H](N)C3)c(F)cc2c1=O [Example 26, 1-cyclopropyl-6-fluoro-8-chloro-7-(3-3R-aminopyrrolidin-1-yl)-3-(2-ethoxycarbonylacetyl)-1,4-dihydro-4-oxoquinoline hydrochloride] | < 0.002 µg/mL | 0.098 µg/mL |  | 0.025 µg/mL | 0.013 µg/mL | 0.781 µg/mL | 0.098 µg/mL | 0.195 µg/mL | 0.098 µg/mL | 0.781 µg/mL | 0.013 µg/mL | 1.56 µg/mL | 0.098 µg/mL | 0.004 µg/mL | 0.049 µg/mL | 0.781 µg/mL | 0.007 µg/mL | 0.781 µg/mL | 0.781 µg/mL | 0.098 µg/mL | MIC [3, 24]: 0.004 µg/mL
5 | CCOC(=O)C(C(=O)OCC)C(=O)c1cn(C2CC2)c2c(F)c(N3CCC(N)C3)c(F)cc2c1=O (centres unmarked) [Example 20, 1-cyclopropyl-6,8-difluoro-7-(3-aminopyrrolidin-1-yl)-3-(2,2-diethoxycarbonylacetyl)-1,4-dihydro-4-oxoquinoline hydrochloride] | < 0.002 µg/mL | 0.025 µg/mL |  | 0.007 µg/mL | < 0.002 µg/mL | 0.195 µg/mL | 0.098 µg/mL | 0.098 µg/mL | 0.013 µg/mL | 0.195 µg/mL | < 0.002 µg/mL | 0.391 µg/mL | 0.013 µg/mL | < 0.002 µg/mL | 0.025 µg/mL | 0.391 µg/mL | < 0.002 µg/mL | 0.098 µg/mL |  | 0.013 µg/mL | MIC [3, 24]: < 0.002 µg/mL; MIC [20, 23]: 0.098 µg/mL
6 | CCOC(=O)CC(=O)c1cn(C2CC2)c2cc(N3CCNCC3)c(F)cc2c1=O [Example 19, 1-cyclopropyl-6-fluoro-7-(piperazin-1-yl)-3-(2-ethoxycarbonylacetyl)-1,4-dihydro-4-oxoquinoline hydrochloride] | 0.013 µg/mL | 0.781 µg/mL |  | 0.013 µg/mL | 0.195 µg/mL | 1.56 µg/mL | 1.56 µg/mL | 0.391 µg/mL | 0.391 µg/mL | 0.781 µg/mL | 0.013 µg/mL | 3.12 µg/mL | 0.391 µg/mL | 0.013 µg/mL | 0.049 µg/mL | 0.781 µg/mL | 0.391 µg/mL | 0.781 µg/mL |  | 1.56 µg/mL | MIC [3, 24]: 0.004 µg/mL; MIC [20, 23]: 1.56 µg/mL
7 | NC1CCN(c2c(F)cc3c(=O)c(C(=O)CC(=O)C(F)(F)F)cn(C4CC4)c3c2Cl)C1 (centres unmarked) [Example 38, 1-cyclopropyl-6-fluoro-8-chloro-7-(3-aminopyrrolidin-1-yl)-3-(2-trifluoroacetoacetyl)-1,4-dihydro-4-oxoquinoline hydrochloride] | 0.025 µg/mL | 0.391 µg/mL | 0.195 µg/mL | 0.098 µg/mL | 0.195 µg/mL | 0.781 µg/mL | 0.391 µg/mL | 0.195 µg/mL | 0.098 µg/mL | 1.56 µg/mL | 0.098 µg/mL | 1.56 µg/mL | 0.391 µg/mL | 0.049 µg/mL | 0.098 µg/mL | 1.56 µg/mL | 0.049 µg/mL | 0.781 µg/mL | 0.781 µg/mL | 0.781 µg/mL | 
8 | CC(=O)C(C(C)=O)C(=O)c1cn(C2CC2)c2c(Cl)c(N3CCC(N)C3)c(F)cc2c1=O (centres unmarked) [Example 48, 1-cyclopropyl-6-fluoro-8-chloro-7-(3-aminopyrrolidin-1-yl)-3-(2,2-diacetoacetyl)-1,4-dihydro-4-oxoquinoline hydrochloride] | 0.195 µg/mL | 0.195 µg/mL | 0.049 µg/mL | 0.195 µg/mL | 0.049 µg/mL | 1.56 µg/mL | 0.781 µg/mL | 0.391 µg/mL | 0.098 µg/mL | 3.12 µg/mL | 0.098 µg/mL | 0.781 µg/mL | 0.195 µg/mL | 0.098 µg/mL | 0.195 µg/mL | 3.12 µg/mL | 0.391 µg/mL | 0.195 µg/mL |  | 0.195 µg/mL | MIC [20, 23]: 0.391 µg/mL
9 | O=C(C[N+](=O)[O-])c1cn(C2CC2)c2cc(N3CCNCC3)c(F)cc2c1=O [Example 4, 1-cyclopropyl-6-fluoro-7-(piperazin-1-yl)-3-(2-nitroacetyl)-1,4-dihydro-4-oxoquinoline hydrochloride] | < 0.002 µg/mL | 0.781 µg/mL |  | 0.007 µg/mL | 0.013 µg/mL | 0.195 µg/mL | 0.098 µg/mL | 0.195 µg/mL | 0.391 µg/mL | 0.195 µg/mL | 0.007 µg/mL | 3.12 µg/mL | 0.195 µg/mL | < 0.002 µg/mL | 0.013 µg/mL | 0.195 µg/mL | 0.007 µg/mL | 0.781 µg/mL | 0.781 µg/mL |  | MIC [3, 24]: < 0.002 µg/mL; MIC ([10]; Staphylococcus aureus 285, Muller-Hinton agar, 37° C., 18 hours, hydrochloride): 0.391 µg/mL
10 | CNC1CCN(c2c(F)cc3c(=O)c(C(=O)C[N+](=O)[O-])cn(C4CC4)c3c2OC)C1 (centres unmarked) [Example 66, 1-cyclopropyl-6-fluoro-8-methoxy-7-(3-methylaminopyrrolidin-1-yl)-3-(2-nitroacetyl)-1,4-dihydro-4-oxoquinoline hydrochloride] | 0.098 µg/mL | 0.098 µg/mL | 0.098 µg/mL | 0.391 µg/mL | 0.195 µg/mL | 1.56 µg/mL | 1.56 µg/mL | 0.781 µg/mL | 0.195 µg/mL | 1.56 µg/mL | 0.195 µg/mL | 1.56 µg/mL | 0.391 µg/mL | 0.049 µg/mL | 0.013 µg/mL | 1.56 µg/mL | 0.781 µg/mL | 0.781 µg/mL | 0.781 µg/mL | 0.391 µg/mL | 
